Measurements reported in patent publication US20060106042A1, “Substituted heterocyclpyrmidines” (priority 2002, published 2006).
Like-named read-outs stand apart in the source and are kept apart here.

Legend:
[1] = logP determination by reversed-phase HPLC (EEC Directive 79/831 Annex V.A8); assay type: physicochemical
Source text: (a) Mobile phases for the determination of the acidic range: 0.1% aqueous phosphoric acid, acetonitrile; linear gradient from 10% acetonitrile to 90% acteonitrile—the corresponding measurement results in Table 1 are marked^a). […]

[2] = test system: Heliothis armigera caterpillars; test: Heliothis armigera test (soya bean shoots, dip); assay type: in vivo; conditions: 500 ppm, soya bean shoots dipped
Method: (§1) • Solvent: 7 parts by weight of dimethylformamide • Emulsifier: 2 parts by weight of alkylaryl polyglycol ether
(§2) To produce a suitable preparation of active compound, 1 part by weight of active compound is mixed with the stated amounts of solvent and emulsifier, and the concentrate is diluted with emulsifier-containing water to the desired concentration.
Soya bean shoots (Glycine max) are treated by being dipped into the preparation of active compound of the desired concentration and are populated with Heliothis annigera caterpillars while the leaves are still moist.
(§3) After the desired period of time, the kill in % is determined. 100% means that all caterpillars have been killed; 0% means that none of the caterpillars have been killed.

[3] = test system: peach aphid (Myzus persicae); test: Myzus test (cabbage leaves, dip); assay type: in vivo; conditions: 500 ppm, cabbage leaves dipped
Method: as §1, §2
Cabbage leaves (Brassica oleracea) which are heavily infested by the peach aphid (Myzus persicae) are treated by being dipped into the preparation of active compound of the desired concentration.
After the desired period of time, the kill in % is determined. 100% means that all aphids have been killed; 0% means that none of the aphids have been killed.

[4] = test system: larvae of the mustard beetle (Phaedon cochleariae); test: Phaedon larvae test (cabbage leaves, dip); assay type: in vivo; conditions: 168 h, after 7 d, cabbage leaves dipped, read-out: Kill rate in % after 7 d
Method: as §1
After the desired period of time, the kill in % is determined. 100% means that all beetle larvae have been killed; 0% means that none of the beetle larvae have been killed.

[5] = test system: caterpillars of the diamondback moth (Plutella xylostella); test: Plutella test (cabbage leaves, dip); assay type: in vivo; conditions: 500 ppm, cabbage leaves dipped
Method: as §1, §2
Cabbage leaves (Brassica oleracea) are treated by being dipped into the preparation of active compound of the desired concentration and are populated with caterpillars of the diamondback moth (Plutella xylostella) while the leaves are still moist.
as §3

[6] = test system: greenhouse red spider mite (Tetranychus urticae); test: Tetranychus test (OP-resistant/dip treatment); assay type: in vivo; conditions: 168 h, read-out: Kill rate in % after 7 d
Method: Tetranychus Test (OP-Resistant/Dip Treatment)
as §1
After the desired period of time, the effect in % is determined. 100% means that all spider mites have been killed; 0% means that none of the spider mites have been killed.

[7] = test system: cotton aphid (Aphis gossypii); test: Aphis gossypii test (cotton leaves, dip); assay type: in vivo; conditions: 500 ppm, cotton leaves dipped
Method: as §1, §2
Cotton leaves (Gossypium hirsutum) which are heavily infested by the cotton aphid (Aphis gossypii) are treated by being dipped into the preparation of active compound of the desired concentration.
After the desired period of time, the kill in % is determined. 100% means all aphids have been killed; 0% means that none of the aphids have been killed.

Meloidogyne incognita = test: Meloidogyne test (gall formation on lettuce roots); assay type: in vivo; conditions: for pest or weed control at 20 ppm: Meloidogyne incognita, 336 h, after 14 d, nematicidal action by gall formation on lettuce, read-out: Kill rate in % after 14 d
Method: as §1
To produce a suitable preparation of active compound, 1 part by weight of active compound is mixed with the stated amounts of solvent and emulsifier, and the concentrate is diluted with water to the desired concentration.
Vessels are filled with sand, solution of active compound, Meloidogyne incognita egg/larvae suspension and lettuce seeds. The lettuce seeds germinate and the plants develop. On the roots, galls are formed.
After the desired period of time, the nematicidal action is determined in % using the formation of galls. 100% means that no galls were found; 0% means that the number of galls on the treated plants corresponds to that of the untreated control.

[8] = test system: caterpillars of the armyworm (Spodoptera frugiperda); test: Spodoptera frugiperda test (cabbage leaves, dip); assay type: in vivo; conditions: 168 h, after 7 d, cabbage leaves dipped, read-out: Kill rate in % after 7 d
Method: Spodoptera frugiperda Test
as §1, §3

[9] = reversed-phase HPLC column (C18), pH 2.3, read-out: logP (pH 2.3)
[10] = 100 ppm, after 7 d, OP-resistant, bean plants dipped
[11] = reversed-phase HPLC column (C18); acidic range: 0.1% aqueous phosphoric acid/acetonitrile gradient, C18, 43° C.; read-out: logP a)

SMILES | pest or weed control at 100 ppm [6, 10] [%] | chromatographic logP [1, 11] | pest or weed control at 500 ppm [8] [%] | also measured
FC(F)=CCCSc1nccc(-n2cccn2)n1 [Example 1, 2-[(4,4-difluoro-3-butenyl)-sulfanyl]-4-(pyrazol-1-yl)-pyrimidine] | 100 | – | – | chromatographic logP [1, 9]: 3.3; Kill rate in % after 7 d [2]: 100%; Kill rate in % after 6 d [3]: 99%; pest or weed control at 500 ppm [4]: 100%; Kill rate in % after 7 d [5]: 100%
FC(F)=CCCSc1nccc(-c2ccccn2)n1 [Example 2] | – | – | – | chromatographic logP [1, 9]: 3.33; Kill rate in % after 6 d [7]: 99%; Kill rate in % after 6 d [3]: 100%; pest or weed control at 500 ppm [4]: 100%
FC(F)=CCCSc1nccc(-c2ccc(Cl)s2)n1 [Example 3] | – | 4.73 | – | pest or weed control at 20 ppm (Meloidogyne incognita): 100%; pest or weed control at 500 ppm [4]: 100%
[O-][S+](CCC=C(F)F)c1nccc(-c2ccccn2)n1 (stereo not drawn) [Example 5] | – | 1.47 | – | pest or weed control at 100 ppm [6]: 100%
FC(F)=CCCSc1nccc(-c2nccc3ccccc23)n1 [Example 7] | 100 | 3.67 | – | Kill rate in % after 6 d [7]: 98%; Kill rate in % after 6 d [3]: 100%; Kill rate in % after 7 d [5]: 100%
COc1ccnc(-c2ccnc(SCCC=C(F)F)n2)c1 [Example 8] | – | 2.41 | – | Kill rate in % after 6 d [7]: 99%; Kill rate in % after 6 d [3]: 95%
FC(F)=CCCSc1nccc(-c2cccnc2)n1 [Example 9] | 100 | 1.96 | – | pest or weed control at 20 ppm (Meloidogyne incognita): 100%
FC(F)=CCCSc1nccc(-c2ccncc2)n1 [Example 10] | – | 1.72 | – | pest or weed control at 500 ppm [4]: 100%
FC(F)=CCCSc1nccc(-c2nccs2)n1 [Example 11] | – | 3.33 | – | Kill rate in % after 6 d [3]: 95%; pest or weed control at 500 ppm [4]: 95%
FC(F)=CCCSc1nccc(-c2cnccn2)n1 [Example 14] | 100 | 2.91 | – | Kill rate in % after 6 d [3]: 95%
FC(F)=CCCSc1nccc(-c2cccc(Br)n2)n1 [Example 17] | 100 | 4.51 | – | –
CCOc1cccc(-c2ccnc(SCCC=C(F)F)n2)n1 [Example 20] | – | 4.91 | 100 | –
FC(F)=CCCSc1nccc(-n2cc(Cl)cn2)n1 [Example 24] | – | 4.13 | – | pest or weed control at 500 ppm [4]: 100%
FC(F)=CCCSc1nccc(-n2ccnn2)n1 [Example 25] | 100 | 2.62 | – | Kill rate in % after 7 d [2]: 100%; Kill rate in % after 7 d [5]: 100%
FC(F)=CCCSc1nccc(-n2nccn2)n1 [Example 26] | – | 2.7 | 100 | Kill rate in % after 6 d [7]: 95%; Kill rate in % after 6 d [3]: 99%
FC(F)=CCCSc1nccc(-c2cccs2)n1 [Example 27] | 100 | 3.83 | – | –
FC(F)=CCCSc1nccc(-c2ccc3ccccc3n2)n1 [Example 31] | – | 4.81 | 100 | –

SMILES | pest or weed control at 100 ppm [6, 10] [%] | chromatographic logP [1, 11] | pest or weed control at 500 ppm [8] [%] | also measured
FC(F)=CCCSc1nccc(-c2cc(-c3ccccc3)ccn2)n1 [Example 32] | 100 | 4.77 | – | –
CC(C)(C)c1ccnc(-c2ccnc(SCCC=C(F)F)n2)c1 [Example 33] | 100 | 4.8 | – | –
COc1cccnc1-c1ccnc(SCCC=C(F)F)n1 [Example 37] | 100 | 2.14 | – | Kill rate in % after 7 d [2]: 100%; Kill rate in % after 7 d [5]: 100%
FC(F)=CCCSc1nccc(-n2nnc3ccccc32)n1 [Example 40] | – | 3.97 | 100 | –
FC(F)=CCCSc1nccc(-n2nc3ccccc3n2)n1 [Example 42] | 99 | 3.98 | – | –
FC(F)=CCCSc1nccc(-c2ncccc2Cl)n1 [Example 43] | 99 | 3.32 | – | –
FC(F)=CCCSc1nccc(-c2cscn2)n1 [Example 48] | – | 3.14 | 100 | –
COc1ccc(-c2ccnc(SCCC=C(F)F)n2)nc1 [Example 50] | – | 2.12 | 100 | –
FC(F)=CCCSc1nccc(-c2ccc(Br)s2)n1 [Example 51] | – | 4.77 | 100 | –
Cc1ccc(-c2ccnc(SCCC=C(F)F)n2)s1 [Example 52] | – | 4.3 | 100 | –
FC(F)=CCCSc1nccc(-c2cc3ccccc3s2)n1 [Example 53] | – | 4.87 | 100 | –
Cc1c(-c2ccnc(SCCC=C(F)F)n2)sc2ccccc12 [Example 54] | 100 | 5.25 | 100 | Kill rate in % after 7 d [5]: 100%
FC(F)=CCCSc1nccc(-c2ccsc2)n1 [Example 59] | – | 3.8 | – | pest or weed control at 500 ppm [4]: 100%
FC(F)=CCCSc1nccc(-c2cc(Cl)sc2Cl)n1 [Example 63] | – | 5.65 | 100 | pest or weed control at 100 ppm [6]: 100%
CC(C)(C)n1nnc(-c2cnc(SCCC(F)=C(F)F)nc2)n1 [Example 67] | – | 4.22 | – | pest or weed control at 20 ppm (Meloidogyne incognita): 100%; pest or weed control at 500 ppm [4]: 100%
FC(F)=CCCSc1nccc(-n2cncn2)n1 [Example 112] | – | – | – | logP a) ([1]; acidic range: 0.1% aqueous phosphoric acid/acetonitrile gradient, C18, 43° C.): logP = 2.44^a); kill rate (Meloidogyne incognita; 20 ppm, Meloidogyne test as described): 100%
